Where “and” joins values, the source holds several entries; their conditions need not be identical. Equal entries are not always repeated.
Key:
[1] = UV-Vis absorption (absorption maximum, extinction coefficient); assay type: physicochemical
Method: (§1) Depending on the basic structure and substitution, the absorption maxima lie in the entire range of visible light, with a focus at 500-530 nm. The compounds show a high Stokes shift in the range of 80 nm. The absorption is measured, for example, at 25° C. in aqueous or ethanolic solutions with an extinction of 1.0 using a Specord 205 from Analytik Jena, wherein the aqueous solutions are preferably phosphate-buffered salt solutions (PBS buffer; approx. 100 mM sodium chloride and 100 mM total phosphate) and have a pH of 7.5. For example, the emission is measured at 25° C. in dilute aqueous or ethanolic solutions with an extinction of 0.1 using a FP-6600 spectrofluorometer from Jasco, wherein the dilute aqueous solutions are preferably phosphate-buffered salt solutions (PBS buffer; about 100 mM sodium chloride and 100 mM total phosphate) and have a pH of 7.5.

[2] = Fluorescence emission (emission maximum); assay type: physicochemical
Method: as §1

Row | Structure (SMILES) | ε ([1]; UV-Vis in PBS) | λmax ([1]; UV-Vis in PBS) [nm] | ε ([1]; UV-Vis in ethanol) | λmax ([1]; UV-Vis in ethanol) | λem ([2]; in PBS) [nm] | λem ([2]; in ethanol) [nm]
1 | CCN(CCCCCC(=O)O)c1ccc2cc3c([o+]c2c1)C=C(Nc1ccccc1)CC3(C)C.[Cl-] [Compound 13, 6-[(6-anilino-8,8-dimethyl-7H-xanthene-10-ium-3-yl)-ethyl-amino]hexanoic Acid Chloride Salt] | 38,000 l/mol*cm | 526 | 44,000 l/mol*cm | 532 nm | 609 | 603
2 | CCN(CC)c1ccc2cc3c([o+]c2c1)C=C1Oc2cc(N(CC)CCCCCC(=O)O)ccc2C=C1C3(C)C.[Cl-] [Compound 47, 6-[[9-(diethylamino)-13,13-dimethyl-chromeno[3,2-b]xanthene-7-ium-3-yl]-ethyl-amino]hexanoic Acid Chloride Salt] | 37000 L/mol/cm | 670 | 80,300 l/mol*cm | 679 nm | 710 | 713
3 | CCN(CCCCCC(=O)O)c1ccc2cc3c([o+]c2c1)C=C(Nc1ccc(N)cc1)CC3(C)C.[Cl-] [Compound 27, 6-[[6-(4-aminoanilino)-8,8-dimethyl-7H-xanthene-10-ium-3-yl]-ethyl-amino]hexanoic Acid Chloride Salt] |  |  | 35,000 l/mol*cm | 530 nm |  | 612
4 | CCN(CCCCCC(=O)O)c1ccc2cc3c([o+]c2c1)C=C(/C=C1\C=CC=CN1)CC3(C)C.[Cl-] [Compound 29, 6-[[8,8-dimethyl-6-[(E)-1H-pyridine-2-ylidenemethyl]-7H-xanthene-10-ium-3-yl]-ethyl-amino]hexanoic Acid Chloride Salt] |  |  | 24,000 l/mol*cm | 434 nm |  | 541
5 | CCN(CCCCCC(=O)O)c1ccc2cc3c([o+]c2c1)C=C(c1ccc(N(C)C)cc1)CC3(C)C.[Cl-] [Compound 30, 6-[[6-[4-(dimethylamino)phenyl]-8,8-dimethyl-7H-xanthene-10-ium-3-yl]-ethyl-amino]hexanoic Acid Chloride Salt] |  |  | 30,000 l/mol*cm | 664 nm |  | 713
6 | CCN(CC)c1ccc2cc3c([o+]c2c1)C=C(C)CC3(C)C.[Cl-] [Compound 31] |  |  | 9,800 l/mol*cm | 538 nm |  | 628
7 | CCN(CCCCCC(=O)O)c1ccc2c(c1)OC1=Cc3[o+]c4cc(OC)ccc4cc3C(C)(C)C1=C2.[Cl-] [Compound 48, 6-[ethyl-(3-methoxy-13,13-dimethyl-chromeno[3,2-b]xanthene-5-ium-9-yl)amino]hexanoic Acid Chloride Salt] |  |  | 53,000 l/mol*cm | 654 nm |  | 712
8 | CN(C1=Cc2[o+]c3cc(OCCCCCC(=O)O)ccc3cc2C(C)(C)C1)c1ccccc1.[Cl-] [Compound 18, 6-[[8,8-dimethyl-6-(N-methylanilino)-7H-xanthene-10-ium-3-yl]oxy]hexanoic Acid Chloride Salt] |  |  |  | 452 nm and 469 nm |  | 520
9 | CCN(CCCCCC(=O)O)c1ccc2cc3c([o+]c2c1)C=C(Nc1ccc2cc(S(=O)(=O)[O-])ccc2c1)CC3(C)C [Compound 15, 6-[[6-[5-carboxypentyl(ethyl)amino]-1,1-dimethyl-2H-xanthene-10-ium-3-yl]amino]naphthalene-2-sulfonate] |  |  | 32,000 l/mol*cm | 546 nm |  | 619
10 | CC1(C)CC(=O)C(S(=O)(=O)[O-])=C2Oc3cc(OCCCCCC(=O)O)ccc3C=C21.[Na+] [Compound 40, 6-(5-carboxypentoxy)-1,1-dimethyl-3-oxo-2H-xanthene-4-sulfonate Sodium Salt] | 21,000 l/mol*cm | 407 | 19,500 l/mol*cm | 403 nm | 483 | 487

— patent US20230159484A1, “FLUORESCENT DYES HAVING HIGH STOKES SHIFT, ON THE BASIS OF BRIDGED BENZOPYRYLIUM SALTS” (DYOMICS GmbH, priority 2020, published 2023)
